Earlier results in patent US8524751B2, “4-oxadiazol-2-YL-indazoles as inhibitors of P13 kinases” (priority 2009, dated 2013).
pIC50: −log10 of the molar value. Read-outs that look alike come from different tables or passages of the source.

What was measured:
[1] = molecular target: CK2 protein kinase
[2] = system: Class I PI3-kinases; settings: each of the Class I PI3-kinases

O=c1cc(N2CCOCC2)oc2c(-c3ccccc3)cccc12 [LY294002]
pIC50 [1]: 5.00 to 5.30 | pIC50 ([2]; Fruman et al. 1998, read-out: IC50 values against each of these PI3-kinases): 4.70 to 4.82

COC[C@H]1OC(=O)c2coc3c2[C@@]1(C)C1=C(C3=O)[C@@H]2CCC(=O)[C@@]2(C)C[C@H]1OC(C)=O [wortmannin]
pIC50 ([2]; read-out: IC50 values against each of the various Class I PI3-kinases): 8.00 to 9.00
